Experimental data taken from ChEMBL document CHEMBL1127412, “PRO_LIGAND: an approach to de novo molecular design. 2. Design of novel molecules from molecular field analysis (MFA) models and pharmacophores” (J Med Chem, 1994).
Non-standard residues stand in square brackets, D forms with d. Residues, ends and D or L forms follow the SMILES beside them. Nle = CCCC[C@H](N)C(=O)O

Each compound was assayed against Angiotensin-converting enzyme (Homo sapiens, UniProt P12821) (assay: Inhibition against ACE.).

Structure (SMILES) | IC50
N[C@@H](Cc1ccccc1)C(=O)N1CCC[C@H]1C(=O)N1CCC[C@H]1C(=O)O (H-Phe-Pro-Pro-OH) | 78 µM
C[C@H](NC(=O)[C@@H](N)CCCNC(=N)N)C(=O)N1CCC[C@H]1C(=O)O (H-Arg-Ala-Pro-OH) | 16 µM
CCCC[C@H](N)C(=O)N[C@@H](C)C(=O)N1CCC[C@H]1C(=O)O (H-[Nle]-Ala-Pro-OH) | 0.7 µM
CC(C)C[C@H](N)C(=O)N[C@@H](C)C(=O)N1CCC[C@H]1C(=O)O (H-Leu-Ala-Pro-OH) | 2.3 µM

The remaining compounds from weak to strong by IC50, led by results:

IC50 | Structure (SMILES)
4.2 µM | C[C@H](NC(=O)[C@@H](N)Cc1ccccc1)C(=O)N1CCC[C@H]1C(=O)O (H-Phe-Ala-Pro-OH)
3.7 µM | CC[C@H](C)[C@H](N)C(=O)N[C@@H](Cc1ccc(O)cc1)C(=O)O (H-Ile-Tyr-OH)
